Tests used:
primary hfRPE culture [1] = assay: Trans-epithelial electrical resistance (TEER), tight-junction integrity; type: cell-based; conditions: TEER measured after 20 FLBZ feedings, after UAM accumulation
Method: TEER and cell death were measured [Ref 51; incorporated by reference in its entirety]. For cell death assays, maximum possible LDH release per Transwell was measured immediately after 2 μL of the final experimental supernate was taken. The Transwell and supernate was then treated with 0.2% Triton X-100 for 15 minutes at 37° C. followed by collection of an additional 2 μL of supernate. Each experimental LDH release value was first normalized to total LDH release from the vehicle condition. Additionally, all TEER and LDH release measurements were normalized to the vehicle group at the zero-hour timepoint.
(§1) To evaluate the safety of D4476 and FLBZ, trans-epithelial electrical resistance (TEER) was measured, a measure of tight-junction integrity, in RPE cultures after prolonged exposure to each compound. As well-formed tight-junctions require myriad cell processes to be optimally coordinated, assessing TEER provides an easily measurable, ongoing, and noninvasive marker for general RPE cell health [Ref. 45; incorporated by reference in its entirety]. […] Lactate dehydrogenase (LDH) release, a combined marker of necrotic and late-stage apoptotic cell death [Refs. 47,48; incorporated by reference in their entireties], was reduced compared to vehicle for all four verified RPE autophagy inducers (FIG. 3b). Exposure of RPE cultures to the oxidant tert-butyl hydroperoxide confirmed the ability of the assay to detect cell death (FIG. 10).
Transepithelial Electrical Resistance (TEER) was tested (FIGS. 16 and 17). TEER is a sensitive measure of toxicity (lower the TEER, the more toxic the drug is). Drugs were added daily and measurements made daily for at least 4-8 days.

primary RPE cultures = assay: Ketone body production (β-hydroxybutyrate, β-HB) fluorometric assay; type: cell-based, human; conditions: 24 hours, apical supernate
Method: After 24 hours of exposure to drugs, supernates were collected and subjected to western blotting for APOE detection and a fluorometric assay for β-HB detection [Ref 51; incorporated by reference in its entirety]. Twenty microliters of apical and basolateral supernates for APOE were mixed with SDS sample buffer and blotted with antibody at a dilution of 1:2000. APOE and β-HB values were normalized to the average value of the vehicle and experimental group within each experimental repeat.
The RPE handles an enormous lipid burden on a daily basis, including OS ingestion from its apical side and lipoprotein particle absorption from its basolateral side. Rather than storing excess lipid, the RPE may choose to degrade or secrete surplus lipids (FIG. 4a). A marker of lipid degradation is the production of KBs, which are secreted by the RPE apically and serve as an energy source for photoreceptors [Refs. 7,8; incorporated by reference in their entireties]. A marker of lipid secretion is the production of the lipoprotein APOE, which is a major component of drusen [Ref. 50; incorporated by reference in its entirety]. It was contemplated that autophagy inducers promote ketogenesis through degradation of ingested lipids, reducing the stimulus for secretion of drusen-promoting APOE.

primary hfRPE culture [2] = assay: Undigestible autofluorescent material (UAM) accumulation, elimination and granule size after oxOS feedings; type: cell-based, human
primary hfRPE culture [3] = system: primary hfRPE culture
Method: Phagocytosis assays using bovine outer segments was performed using the “pulse-only” method [Ref 43; incorporated by reference in its entirety]. Values at the zero-hour timepoint were used for normalization.

hfRPE = type: cell-based, human
Method: Whole mounted Transwells (in duplicate) are photographed.
as §1

[4] = system: primary human fetal RPE (hfRPE) culture; assay: Autophagy induction by LC3 lipidation (LC3-II/LC3-I ratio) on Western blot; type: cell-based; conditions: 24 hours exposure, vs vehicle (DMSO)
Method: Cell cultures were exposed to each putative autophagy inducer at a concentration indicated in Table 1 for 24 hours, lysed with 36 μL of SDS sample buffer with β-mercaptoethanol, with 15 μg of lysate loaded on a 4-15% gradient gel followed by transfer to a PVDF membrane. Blots were incubated with 1:1000 of LC3A/B antibody (Cell Signaling Technology; #4108s, RRID:AB_2137703) overnight. Quantifying LC3-II/LC3-I ratio is a well-accepted method for det 306 ermining autophagy induction [Ref. 44; incorporated by reference in its entirety], and this ratio was quantified in a non-saturated, linear range using the Azure c500 Imaging System (Azure Biosystems, Dublin, CA, USA) and a combination of AzureSpot and ImageJ software. The data in FIG. 2A are not normalized, whereas the data in FIGS. 2b and 1c are normalized to the average combined value of the vehicle and drug groups within each experimental repeat. The extreme pigmentation of human fetal cultures, combined with the destruction of the LC3 epitope with melanin bleaching protocols, makes detection of LC3 by microscopy in hfRPE difficult. A range of LC3 staining and puncta quantification protocols specifically adapted to pigmented hfRPE culture were employed [Ref. 43; incorporated by reference in its entirety]. At least five fields of view were randomly chosen and analyzed per experimental replicate for LC3 immunocytochemistry.
To test for autophagy induction, lipidation of the core autophagy protein LC3 was measured by mobility shift on Western blots 24 hours after each compound was added to hfRPE cultures [Ref. 44; incorporated by reference in its entirety]. […] Of the more than 30 putative autophagy inducers tested, only five produced an increased ratio of LC3-II/LC3-I, consistent with increased autophagy (FIG. 2a).
Autophagy induction was measured by LC3-II/LC3-I Ratios on Western Blot (standard method for autophagy induction) (FIG. 18A-C). Drugs were applied to primary human RPE culture for 24 hours.

COC(=O)Nc1nc2cc(C(=O)c3ccc(F)cc3)ccc2[nH]1 [FLBZ, Flubendazole]
Cell health by tight-junction integrity (TEER) in cultures with established UAM (primary hfRPE culture [1]): improved cell health | β-hydroxybutyrate (β-HB) production (primary RPE cultures): increased production | UAM granule size, drug during oxOS feedings (primary hfRPE culture [2]; concurrent feeding of oxOS and drug): smaller than untreated cultures | UAM accumulation, drug fed concurrently with oxOS (primary hfRPE culture [2]; fed daily with oxOS over a month, FLBZ 12 μM, Torin 1 μM, vs vehicle): significantly less UAM accumulation | UAM granule size, drug after UAM buildup (primary hfRPE culture [2]; twenty drug feedings after UAM accrual): smaller granule size | UAM level, drug fed after UAM had accumulated (primary hfRPE culture [2]; twenty oxOS feedings, wash, then twenty drug feedings over an additional month): significantly lower levels of UAM | OS phagocytosis efficiency / OS degradative capacity (primary hfRPE culture [3]): no effect on OS degradative capacity | RPE pigmentation (hfRPE): preserved pigmentation | LC3-II/LC3-I ratio (autophagy induction) [4]: Induction of autophagy

Source: patent US20240058308A1, “TREATMENT AND PREVENTION OF DRY MACULAR DEGENERATION” (The Regents of the University of Michigan, priority 2021, published 2024)
